Series [1] is described as follows: Growth inhibition of human breast cancer stem cells. It counts as functional.
Series [2] is described as follows: Growth inhibition of human mammary epithelial cells at 20 uM. The series is classed as cell-based. The conditions noted are these: epithelial cell.
Series [3] can be described thus: Growth inhibition of human mammary epithelial cells. It counts as cell-based. As to conditions: Epithelial cell.
The species named for a further series is Homo sapiens. The experiment in a line: Growth inhibition of human breast cancer stem cells at 20 uM. The series is classed as functional.
Series [4] can be described thus: Solubility in phosphate buffered saline at 100 microM with 1% DMSO at pH 7.4 at 23 degC by UPLC-MS method. It counts as physicochemical.
Series [5] in a line: Stability in human plasma assessed as compound remaining measured after 5 hrs by UPLC-MS method. It counts as ADME, cell-free. The conditions noted are these: read-out: Stability.
Series [6] can be described thus: Protein binding in human plasma incubated for 48 hrs by UPLC-MS method. The series is classed as ADME, cell-free. As to conditions: read-out: PPB (converted).
Series [7] is described as follows: Stability in presence of glutathione containing medium assessed as compound remaining measured after 48 hrs by UPLC-MS method. As to conditions: read-out: Stability. The series is classed as physicochemical.
Series [8] in a line: Stability in phosphate buffered saline with 0.1% DMSO assessed as compound remaining measured after 48 hrs by UPLC-MS method. As to conditions: read-out: Stability. The series is classed as physicochemical.

Converted amounts (≈) assume the structure as drawn. The source made the active and inactive calls. The rule behind the calls is not given here.

With `O=C(N/N=C/c1ccc[nH]1)C1CC1c1ccc(Cl)cc1Cl` (stereo not drawn), a half-maximal response in series [1] (EC50) required 59.1 µM. Further, in [2], the “growth inhibition (GI)” value was “Non-toxic”.

With `O=C(N/N=C/c1ccc[nH]1)c1cc2ccccc2o1`, the 50% effective concentration (EC50) in series [1] stood at 6.32 µM. Further, the “growth inhibition (GI)” value in series [2] is recorded as “Non-toxic”.

Consider `O=C(COc1ccc(Cl)cc1Cl)N/N=C/c1ccc[nH]1`, for which, in series [1], the EC50 is 3.33 µM. For the same molecule, the “growth inhibition (GI)” value in series [2] is “Non-toxic”.

Regarding `O=C(COc1ccc2c(c1)OCO2)N/N=C/c1ccc[nH]1`, the EC50 in series [1] was 36.2 µM; in [3], 21 µM.

For `O=C(N/N=C/c1ccc[nH]1)C1COc2cc3ccccc3cc2O1` (stereo not drawn), the concentration for a half-maximal effect (EC50) in series [1] was found to be 4.21 µM; in series [3] it was 18.9 µM.

In the case of `O=C(COc1ccc(Cl)cc1Cl)N/N=C/c1cc[nH]n1`, the “growth inhibition (GI)” value in series [2] was “Non-toxic”. Further, the “growth inhibition (GI)” value in the series listed under Homo sapiens is “inactive”.

On to `Cc1cc(C)c(OCC(=O)N/N=C/c2ccc[nH]2)c(C)c1`, for which the midpoint of the response in series [1], the EC50, lay at 9.42 µM. In [2], the “growth inhibition (GI)” value is listed as “Non-toxic”.

As for `Cc1cc(Br)ccc1OCC(=O)N/N=C/c1ccc[nH]1`, the EC50 in series [1] stood at 3.76 µM. Further, the “growth inhibition (GI)” value in [2] is on record as “Non-toxic”.

Consider `CC(C)(C)c1ccc(C2CC2C(=O)N/N=C/c2ccc[nH]2)cc1` (stereo not drawn), for which the figures for the EC50 in series [1] and in series [3] were 0.79 µM and 2.14 µM, respectively.

On to `CC(C)(C)c1ccc2c(c1)OC(C(=O)N/N=C/c1ccc[nH]1)CO2` (stereo not drawn), for which the EC50 was found to be 2.51 µM in series [1] and 15 µM in series [3].

In series [1], `O=C(COc1cc(Cl)ccc1Cl)N/N=C/c1ccc[nH]1` returned an EC50 of 3.39 µM. The “growth inhibition (GI)” value in [2] is “Non-toxic”.

In series [1], `CC(Oc1ccc(F)cc1Cl)C(=O)N/N=C/c1ccc[nH]1` (stereo not drawn) registered an EC50 of 35.4 µM. In addition, the “growth inhibition (GI)” value in [2] was “Non-toxic”.

Regarding `Cc1ccccc1NCC(=O)N/N=C/c1ccc[nH]1`, in [2], the “growth inhibition (GI)” value was “Non-toxic”. Further, in the series filed under Homo sapiens, the “growth inhibition (GI)” value is “inactive”.

On to `O=C(COc1ccc(Cl)cc1Cl)N/N=C/c1ccccn1`, for which the “growth inhibition (GI)” value in series [2] is “Non-toxic”. The “growth inhibition (GI)” value in the series filed under Homo sapiens is “inactive”.

For `Cc1cc(Cl)ccc1OCC(=O)N/N=C/c1ccc[nH]1`, the EC50 in series [1] worked out at 2.89 µM; in series [3], 26.7 µM.

In the case of `CC(Oc1cc(Cl)ccc1Cl)C(=O)N/N=C/c1ccc[nH]1` (stereo not drawn), the EC50 in [1] worked out at 33.4 µM; in series [3], 97.7 µM.

As for `O=C(COc1ccc2ccccc2c1Br)N/N=C/c1ccc[nH]1`, the half-maximal effective concentration (EC50) in [1] is 1.11 µM; in series [3], 3.03 µM.

In the case of `O=C(COc1ccc(Cl)cc1Cl)N/N=C/c1ccccc1`, in [2], the “growth inhibition (GI)” value is reported as “Non-toxic”. In addition, the “growth inhibition (GI)” value in the series filed under Homo sapiens was “inactive”.

On to `O=C(COc1ccc(F)cc1Cl)N/N=C/c1ccc[nH]1`, for which the EC50 in series [1] was 8.86 µM; in series [3], 33.6 µM.

On to `O=C(COc1ccc(Cl)cc1Cl)N/N=C/c1c[nH]cn1`, for which the “growth inhibition (GI)” value in series [2] is reported as “Non-toxic”. For the same molecule, the “growth inhibition (GI)” value in the series filed under Homo sapiens was “inactive”.

As to `Cc1ccccc1OCC(=O)N/N=C/c1ccc[nH]1`, in series [1], the response was half-maximal at 40.7 µM (EC50). The “growth inhibition (GI)” value in series [2] is “Non-toxic”.

Consider `O=C(COc1ccc(Cl)cc1Cl)N/N=C/c1ccco1`, for which the “growth inhibition (GI)” value in series [2] is “Non-toxic”. Besides, in the series filed under Homo sapiens, the “growth inhibition (GI)” value was “inactive”.

`O=C(COc1ccccc1Cl)N/N=C/c1ccc[nH]1` displayed an EC50 in series [1] of 33.5 µM. Besides, the “growth inhibition (GI)” value in series [2] was “Non-toxic”.

With `COc1ccccc1OCC(=O)N/N=C/c1ccc[nH]1`, the “growth inhibition (GI)” value in series [2] was “Non-toxic”. In addition, the “growth inhibition (GI)” value in the series listed under Homo sapiens was “inactive”.

Consider `C/C(=N\NC(=O)COc1ccc(Cl)cc1Cl)c1ccc[nH]1`, for which the “growth inhibition (GI)” value in series [2] is on record as “Non-toxic”. The “growth inhibition (GI)” value in the series filed under Homo sapiens was “inactive”.

As for `O=C(COc1ccc(Cl)cc1Cl)N/N=C/c1cccs1`, in series [2], the “growth inhibition (GI)” value was “Non-toxic”. In addition, the “growth inhibition (GI)” value in the series filed under Homo sapiens was “inactive”.

`O=C(N/N=C/c1ccc[nH]1)C1CC1c1ccccc1` (stereo not drawn) yielded an EC50 in series [1] of 12.9 µM. Also, the “growth inhibition (GI)” value in series [2] is “Non-toxic”.

On to `O=C(COc1ccc(Cl)cc1Br)N/N=C/c1ccc[nH]1`, for which the EC50 in series [1] was 3.16 µM; in [3] it was 20.9 µM.

`O=C(COc1ccc(Cl)cc1)N/N=C/c1ccc[nH]1` returned an EC50 in series [1] of 22.5 µM. Moreover, the “growth inhibition (GI)” value in [2] is recorded as “Non-toxic”.

Regarding `N#Cc1ccccc1OCC(=O)N/N=C/c1ccc[nH]1`, the “growth inhibition (GI)” value in series [2] is recorded as “Non-toxic”. For the same molecule, the “growth inhibition (GI)” value in the series listed under Homo sapiens was “inactive”.

`O=C(COc1c(Cl)cccc1Cl)N/N=C/c1ccc[nH]1`: in series [1], the EC50 was determined as 126 µM. Besides, the “growth inhibition (GI)” value in series [2] is on record as “Non-toxic”.

Turning to `O=C(CSc1ccc(Cl)cc1Cl)N/N=C/c1ccc[nH]1`, the EC50 in series [1] amounted to 2.3 µM; in series [3], 18 µM.

Take `O=C(N/N=C/c1ccc[nH]1)C1Cc2ccccc2O1` (stereo not drawn): the “growth inhibition (GI)” value in [2] is listed as “Non-toxic”. The “growth inhibition (GI)” value in the series listed under Homo sapiens was “inactive”.

Take `Cn1cccc1/C=N/NC(=O)COc1ccc(Cl)cc1Cl`: the “growth inhibition (GI)” value in series [2] is reported as “Non-toxic”. The “growth inhibition (GI)” value in the series listed under Homo sapiens was “inactive”.

With `O=C(COc1ccc(Cl)cc1Cl)N/N=C/c1cc2ccccc2[nH]1`, the EC50 is 125 µM in series [1] and 23.5 µM in series [3].

In turn, `O=C(CCc1ccc2c(c1)OCO2)N/N=C/c1ccc[nH]1` showed an EC50 in series [1] of 53.4 µM. The “growth inhibition (GI)” value in series [2] is reported as “Non-toxic”.

Consider `O=C(COc1ccc(Cl)cc1Cl)N/N=C/c1ccccc1O`, for which the EC50 was determined as 79.5 µM in series [1] and 56.3 µM in series [3].

Take `O=C(COc1c(Cl)cc(Cl)cc1Cl)N/N=C/c1ccc[nH]1`: the EC50 in series [1] was 1.16 µM; in series [3] it was 27.6 µM. Also, in series [4], the solubility (kinetic) at 100 µM turned out to be 6.3 µM (≈ 2.18 µg/mL). In addition, the remaining at 5 h in series [5] is 49%. Moreover, the fraction unbound at 48 h in [6] is 0.012. In addition, the remaining at 48 h in [7] amounted to 85%; in series [8] it was 76%.

`Cc1ccc(/C=N/NC(=O)COc2ccc(Cl)cc2Cl)[nH]1`: the concentration for a half-maximal effect (EC50) came to 14.3 µM in [1] and 16.9 µM in series [3].

Usually EC50 stands for the concentration giving half of the maximal effect. A word on the kinetic solubility: it is the concentration staying in solution when a stock, usually in DMSO, is diluted into the medium.

The values above are taken from ChEMBL document CHEMBL2086332, “Identification of a selective small molecule inhibitor of breast cancer stem cells” (Bioorg Med Chem Lett, 2012).
